The values below come from patent publication US6855730B2, “3-methylidenyl-2-indolinone modulators of protein kinase” (Sugen, Inc., priority 1998, dated 2005).

In one assay the target is pyk2 (Homo sapiens, UniProt Q14289). The assay can be described thus: bio pyk2 assay. It counts as biochemical.
In the next assay the target is EGFR (Homo sapiens, UniProt P00533). The assay can be described thus: Biochemical EGFR assay (ELISA, A431 cell lysate). Also noted: A431 cell lysate (Screening Lab, SUGEN, Inc.); host or cells: A431. To be noted: read-out: bio EGFr IC50. The gist of the method: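 EGFR captured from A431 cell lysate onto anti-EGFR-coated plates, then incubated with test compound for 30 min at room temperature. Tyrosine phosphorylation with ATP/MnCl2 was stopped with EDTA after 5 min and detected by anti-phosphotyrosine ELISA with peroxidase/ABTS read-out.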
For orientation: In an ELISA, binding on a coated surface is turned into a signal by an enzyme label.

The next assay deals with T1, src protein kinase (Gallus gallus, UniProt P00523).
T1 construct: host or cells: Schizosaccharomyces pombe SP200
The assay can be described thus: Biochemical SRC assay (phosphorylation of biotinylated peptide). To be noted: read-out: bio src IC50.

Assay [1] concerns the target T2, 3T3 cell line genetically engineered to express human PDGF-R (Homo sapiens, UniProt P09619).
T2 construct: expressed in transfected cells; host or cells: 3T3
The experiment in a line: PDGF-induced BrdU incorporation assay. Format: cell-based. To be noted: read-out: PDGF-Induced BrdU Incorp. IC50. A general note: Incorporation of labelled thymidine or its analogues reports DNA synthesis.
Description: The general procedure is as follows: a compound is introduced to cells expressing the test kinase, either naturally or recombinantly, for a selected period of time after which, if the test kinase is a receptor, a ligand known to activate the receptor is added. […] The cellular/biologic assays described herein measure the amount of DNA made in response to activation of a test kinase, which is a general measure of a proliferative response. The general procedure for this assay is as follows: a compound is introduced to cells expressing the test kinase, either naturally or recombinantly, for a selected period of time after which, if the test kinase is a receptor, a ligand known to activate the receptor is added. After incubation at least overnight, a DNA labeling reagent such as Bromodeoxyuridine (BrdU) or 3H-thymidine is added. The amount of labeled DNA is detected with either an anti-BrdU antibody or by measuring radioactivity and is compared to control cells not contacted with a test compound.
PDGF-Induced BrdU Incorporation Assay
Protocol • (1) Cells are seeded at 8000 cells/well in DMEM, 10% CS, 2mM Gln in a 96 well plate. […] The negative control wells receive serum free DMEM with 0.1% BSA only, the positive control cells receive the ligand (PDGF) but no test compound. […] FixDenat solution is added (50 μ/well) and the plates are incubated at room temperature for 45 minutes on a plate shaker. • (6) The FixDenat solution is thoroughly removed by decanting and tapping the inverted plate on a paper towel. Milk is added (5% dehydrated milk in PBS, 200 μ/well) as a blocking solution and the plate is incubated for 30 minutes at room temperature on a plate shaker. • (7) The blocking solution is removed by decanting and the wells are washed once with PBS. Anti-BrdU-POD solution (1:100 dilution in PBS, 1% BSA) is added (100 μl/well) and the plate is incubated for 90 minutes at room temperature on a plate shaker. • (8) The antibody conjugate is thoroughly removed by decanting and rinsing the wells 5 times with PBS, and the plate is dried by inverting and tapping on a paper towel. • (9) TMB substrate solution is added (100 μl/well) and incubated for 20 minutes at room temperature on a plate shaker until color development is sufficient for photometric detection. • (10) The absorbance of the samples are measured at 410 nm (in “dual wavelength” mode with a filter reading at 490 nm, as a reference wavelength) on a Dynatech ELISA plate reader.

Chain of EGFR (P00533 25-1210): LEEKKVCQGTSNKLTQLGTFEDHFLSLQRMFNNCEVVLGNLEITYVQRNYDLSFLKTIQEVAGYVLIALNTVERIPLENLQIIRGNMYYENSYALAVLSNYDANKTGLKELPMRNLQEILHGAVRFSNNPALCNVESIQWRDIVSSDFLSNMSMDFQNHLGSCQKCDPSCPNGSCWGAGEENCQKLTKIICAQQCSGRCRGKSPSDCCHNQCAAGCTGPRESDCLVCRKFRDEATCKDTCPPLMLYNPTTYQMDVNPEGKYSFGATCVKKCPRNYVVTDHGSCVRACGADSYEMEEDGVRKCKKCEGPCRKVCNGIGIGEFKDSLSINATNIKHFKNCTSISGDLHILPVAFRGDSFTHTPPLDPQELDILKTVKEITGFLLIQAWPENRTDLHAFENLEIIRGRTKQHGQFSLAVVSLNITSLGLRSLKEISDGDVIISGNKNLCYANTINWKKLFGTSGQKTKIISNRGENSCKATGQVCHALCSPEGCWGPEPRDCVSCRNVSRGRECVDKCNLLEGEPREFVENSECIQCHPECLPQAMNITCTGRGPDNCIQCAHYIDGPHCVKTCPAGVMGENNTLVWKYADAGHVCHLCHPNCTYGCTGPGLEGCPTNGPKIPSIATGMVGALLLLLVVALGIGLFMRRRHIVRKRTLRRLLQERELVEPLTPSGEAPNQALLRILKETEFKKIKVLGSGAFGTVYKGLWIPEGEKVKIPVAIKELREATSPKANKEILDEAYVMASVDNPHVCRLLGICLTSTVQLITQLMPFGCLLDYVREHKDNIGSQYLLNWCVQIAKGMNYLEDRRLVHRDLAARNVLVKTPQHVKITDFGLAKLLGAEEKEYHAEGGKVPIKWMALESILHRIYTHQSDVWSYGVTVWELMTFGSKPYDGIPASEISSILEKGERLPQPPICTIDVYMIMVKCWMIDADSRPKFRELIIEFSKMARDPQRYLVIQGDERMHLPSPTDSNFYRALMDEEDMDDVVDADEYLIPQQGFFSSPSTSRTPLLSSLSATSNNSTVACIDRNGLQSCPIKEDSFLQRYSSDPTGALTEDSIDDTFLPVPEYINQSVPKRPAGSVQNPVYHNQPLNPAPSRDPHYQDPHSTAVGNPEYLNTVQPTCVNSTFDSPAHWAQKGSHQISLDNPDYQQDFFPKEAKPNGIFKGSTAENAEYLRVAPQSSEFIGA
Chain of pyk2 (Q14289 whole entry, species assumed): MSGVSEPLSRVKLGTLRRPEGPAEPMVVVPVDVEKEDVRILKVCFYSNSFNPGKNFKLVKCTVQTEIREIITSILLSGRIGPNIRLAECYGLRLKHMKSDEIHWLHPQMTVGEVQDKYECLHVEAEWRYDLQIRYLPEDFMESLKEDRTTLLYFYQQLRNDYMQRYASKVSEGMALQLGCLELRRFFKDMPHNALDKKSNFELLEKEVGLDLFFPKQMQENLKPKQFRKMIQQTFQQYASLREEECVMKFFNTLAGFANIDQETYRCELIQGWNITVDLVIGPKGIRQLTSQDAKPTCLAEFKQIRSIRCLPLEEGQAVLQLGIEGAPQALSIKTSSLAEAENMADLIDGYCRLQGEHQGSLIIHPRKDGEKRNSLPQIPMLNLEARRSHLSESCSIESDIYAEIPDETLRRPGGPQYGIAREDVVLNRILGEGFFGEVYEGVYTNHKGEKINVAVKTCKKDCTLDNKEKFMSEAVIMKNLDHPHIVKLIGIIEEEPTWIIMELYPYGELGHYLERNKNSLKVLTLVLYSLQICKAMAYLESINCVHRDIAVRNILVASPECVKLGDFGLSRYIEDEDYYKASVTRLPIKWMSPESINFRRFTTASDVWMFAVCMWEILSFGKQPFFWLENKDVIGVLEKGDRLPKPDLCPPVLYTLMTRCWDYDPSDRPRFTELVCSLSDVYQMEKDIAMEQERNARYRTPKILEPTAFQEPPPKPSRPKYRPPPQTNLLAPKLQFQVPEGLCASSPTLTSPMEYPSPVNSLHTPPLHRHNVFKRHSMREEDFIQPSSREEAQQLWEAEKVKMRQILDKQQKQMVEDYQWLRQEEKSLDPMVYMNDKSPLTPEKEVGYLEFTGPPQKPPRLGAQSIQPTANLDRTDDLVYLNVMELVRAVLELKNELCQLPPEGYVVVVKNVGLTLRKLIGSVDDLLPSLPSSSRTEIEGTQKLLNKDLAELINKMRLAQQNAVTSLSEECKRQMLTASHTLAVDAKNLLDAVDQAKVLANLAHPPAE
Description for src protein kinase: This assay is used to determine src protein kinase activity measuring phosphorylation of a biotinylated peptide as the readout.
Yeast transformed with src (Sugen, Inc., Redwood City, Calif.). • b. Cell lysates: Yeast cells expressing src are pelleted, washed once with water, re-pelleted and stored at −80° C. until use. • c. N-terminus biotinylated [sequence] is prepared by standard procedures well known to those skilled in the art. • d. DMSO: Sigma, St. Louis, Mo. • e. […] Vecastain ELITE ABC reagent: Vector, Burlingame, Calif. • h. […] S. Pombe strain SP200 (h-s leul.32 ura4 ade210) is grown as described and transformations are pRSP expression plasmids are done by the lithium acetate method (Superti-Furga, supra). Cells are grown in the presence of 1 μM thiamine to repress expression from the nmtl promoter or in the absence of thiamine to induce expression. • i. […] Turbo TMB-ELISA peroxidase substrate: Pierce Chemical.
Buffer Solutions • a. PBS (Dulbecco's Phosphate-Buffered Saline): GIBCO PBS, GIBCO Cat. #450-1300EB. • b. Blocking Buffer: 5% Non-fat milk (Carnation) in PBS. • c. Carbonate Buffer: Na2CO4 from Fischer, Cat. # S495, make up 100 mM stock solution. • d. Kinase Buffer: 1.0 ml (from 1M stock solution) MgCl2, 0.2 ml (from a 1M stock solution) MnCl2, 0.2 ml (from a 1M stock solution) DTT, 5.0 ml (from a 1M stock solution) HEPES, 0.1 ml TX-100, bring to 10 ml total volume with MilliQ H2O. • e. […] NaCl: Fischer Cat. # S271-10, Make up 5M stock solution with MilliQ H2O. • i. […] MgCl2: Fischer Cat. # M33-500, make up 1M stock solution with MilliQ H2O. • k. […] MnCl2: Fischer Cat. # M87-100, make up 1M stock solution with MilliQ H2O. • n. DTT: -Fischer Cat. # BP172-5. • o. […] Kinase Reaction Mixture: Amount per assay plate (100 wells): 1.0 ml Kinase Buffer, 200 λg GST-ζ, bring to final volume of 8.0 ml with MilliQ H2O. • q. […] Then add 1 drop of reagent B. Put tube on orbital shaker at room temperature and mix for 30 minutes.
Preparation of src Coated ELISA Plate. • 1. Coat ELISA plate with 0.5 μg/well anti-src mab in 100 μl of pH 9.6 sodium carbonate buffer, hold at 40° C. overnight. • 2. Wash wells once with PBS. • 3. […] Wash plate 5× with PBS. • 5. Add 10 μg/well of src transformed yeast lysates diluted in Lysis Buffer (0.1 ml total volume per well). (Amount of lysate may vary between batches.) Shake plate for 20 minutes at room temperature.
Preparation of Phosphotyrosine Antibody-coated ELISA Plate. • 1. 4G10 plate: coat 0.5 μg/well 4G10 in 100 μl PBS overnight at 4° C. and block with 150 μl of 5% milk in PBS for 30 minutes at room temperature.
Kinase Assay Procedure. • 1. Remove unbound proteins from plates and wash plates 5× with PBS. • 2. […] Wash plate 5× with TBST. • 10. Incubate with Vectastain ELITE ABC reagent (100 μl/well) for 30 min. at room temperature. • 11. Wash the wells 5× with TBST. • 12. Develop with Turbo TMB.

Regarding `Nc1ccc2c(c1)/C(=C/c1ccc3[nH]ccc3c1)C(=O)N2` [Example 179, 5-Amino-3-(1H-indol-5-ylmethylene)-1,3-dihydro-indol-2-one], the IC50 on pyk2 and at EGFR was greater than 100 µM each time.
With `Cc1c(/C=C2\C(=O)Nc3ccc(N)cc32)[nH]c2ccccc12` [Example 180, 5-Amino-3-(3-methyl-1H-indol-2-ylmethylene)-1,3-dihydroindol-2-one], the IC50 at pyk2 is less than 0.78 µM; on EGFR, greater than 100 µM.
The like results for `O=C1Nc2ccc(C(=O)O)cc2/C1=C/c1c[nH]c2ccccc12` [Example 174, 3-(1H-Indol-3-ylmethylene)-2-oxo-2,3-dihydro-1H-indole-5-carboxylic acid] were, in that order, 2.57 µM and greater than 100 µM.
In the case of `COc1ccc(-c2ccc3c(c2)NC(=O)/C3=C\c2[nH]c3c(c2CCC(=O)O)CCCC3)cc1` [Example 205, 3-{2-[6-(4-Methoxyphenyl)-2-oxo-1,2-dihydro-indol-3-ylidenemethyl]-4,5,6,7-tetrahydro-1H-indol-3-yl}-propionic acid], the results for the IC50 at src protein kinase and at EGFR were 1.34 µM and 16.2 µM, respectively.
For `CNS(=O)(=O)c1ccc2c(c1)/C(=C/c1cc3ccccc3[nH]1)C(=O)N2` [Example 173, 3-(1H-Indol-2-ylmethylene)-2-oxo-2,3-dihydro-1H-indole-5-sulfonic acid methylamide], the IC50 against pyk2 was determined as 9.8 µM; on EGFR, 22 µM.
The like results for `O=C1Nc2ccc(C(=O)O)cc2/C1=C/c1ccc2[nH]ccc2c1` [Example 177, 3-(1H-Indol-5-ylmethylene)-2-oxo-2,3-dihydro-1H-indole-5-carboxylic acid] were, in that order, greater than 100 µM and 6.13 µM.
As to `COc1c(C(C)C)cc(/C=C2/C(=O)Nc3ccc(Cl)cc32)cc1C(C)C` [Example 2, 5-Chloro-3-(3,5-diisopropyl-4-methoxybenzylidene)-1,3-dihydroindol-2-one], the IC50 on EGFR is greater than 100 µM.
Consider `CCOc1cccc(-c2ccc3c(c2)NC(=O)/C3=C\c2[nH]cc(C)c2CCC(=O)O)c1` [Example 224, 3-{2-[6-(3-Ethoxyphenyl)-2-oxo-1,2-dihydro-indol-3-ylidenemethyl]-4-methyl-1H-pyrrol-3-yl}-propionic acid], for which the IC50 on src protein kinase came out at 1.16 µM.
As to `O=C(O)CCc1c(/C=C2\C(=O)Nc3cc(-c4ccccc4)ccc32)[nH]c2c1CCCC2` [Example 206, 3-[2-(2-oxo-6-phenyl-1,2-dihydroindol-3-ylidenemethyl)-4,5,6,7-tetrahydro-1H-indol-3-yl]-propionic acid], at src protein kinase, the 50% inhibitory concentration (IC50) was 0.74 µM.
For the compound `O=C(O)CCc1ccccc1/C=C1/C(=O)Nc2ccccc21` [Example 214, 3-[2-(2-Oxo-1,2-dihydroindol-3-ylidenemethyl)-phenyl]-propionic acid], the IC50 on src protein kinase and at EGFR was greater than 100 µM throughout.
As for `Cc1cc(CCC(=O)O)c(/C=C2\C(=O)Nc3ccc(Br)cc32)[nH]1` [Compound 116, 3-[2-(5-Bromo-2-oxo-1,2-dihydroindol-3-ylidenemethyl)-5-methyl-1H-pyrrol-3-yl]-propionic acid], the IC50 on EGFR was greater than 100 µM.
As for `NS(=O)(=O)c1ccc2c(c1)/C(=C/c1c[nH]c3ccccc13)C(=O)N2` [Example 172, 3-(1H-Indol-3-ylmethylene)-2-oxo-2,3-dihydro-1H-indole-5-sulfonic acid amide], the IC50 is 14.8 µM on pyk2 and greater than 100 µM at EGFR.
`COc1cccc(-c2ccc3c(c2)NC(=O)/C3=C\c2[nH]cc(C)c2CCC(=O)O)c1` [Example 223, 3-{2-[6-(3-Methoxyphenyl)-2-oxo-1,2-dihydro-indol-3-ylidenemethyl]-4-methyl-1H-pyrrol-3-yl}-propionic acid]: the IC50 at src protein kinase came to 1.06 µM; at EGFR, 13.3 µM.
With `O=C1Nc2ccc(N=Cc3cc4ccccc4[nH]3)cc2C1=Cc1cc2ccccc2[nH]1` [Example 171, 3-(1H-indol-2-ylmethylene)-5-[(1H-indol-2-ylmethylene)-amino]-1,3-dihydroindol-2-one], the IC50 at EGFR was greater than 100 µM.
Take `COc1ccc2c(c1)/C(=C/c1[nH]cc(C)c1CCC(=O)O)C(=O)N2` [Example 222, 3-[2-(5-Methoxy-2-oxo-1,2-dihydroindol-3-ylidenemethyl)-4-methyl-1H-pyrrol-3-yl]-propionic acid]: the IC50 at src protein kinase is 5.77 µM; in assay [1], greater than 50 µM; on EGFR it was greater than 100 µM.
On to `O=C(O)CCc1c(/C=C2\C(=O)Nc3ncccc32)[nH]c2c1CCCC2` [Example 203, 3-[2-(2-Oxo-1,2-dihydropyrrolo[2,3-b]pyridin-3-ylidenemethyl)-4,5,6,7-tetrahydro-1H-indol-3-yl]-propionic acid], for which the IC50 on EGFR is greater than 12.5 µM.
As to `Cc1[nH]c2ccccc2c1/C=C1\C(=O)Nc2ccc(C(=O)O)cc21` [Example 182, 3-(2-Methyl-1H-indol-3-ylmethylene)-2-oxo-2,3-dihydro-1H-indole-5-carboxylic acid], the figures for the IC50 against pyk2 and at EGFR were 37.1 µM and greater than 100 µM, respectively.
Turning to `CC(C)NS(=O)(=O)c1ccc2c(c1)C(=Cc1[nH]c3c(c1CCC(=O)O)CCCC3)C(=O)N2` [Example 208, 3-[2-(5-Isopropylaminosulfonyl-2-oxo-1,2-dihydroindol-3-ylidenemethyl)-4,5,6,7-tetrahydro-1H-indol-3-yl]-propionic acid], the IC50 was 1.84 µM on src protein kinase, 0.13 µM on pyk2 and greater than 100 µM at EGFR.
Consider `COc1c(C(C)C)cc(/C=C2/C(=O)Nc3ccccc32)cc1C(C)C` [Example 1, 3-(3,5-Diisopropyl-4-methoxybenzylidene)-1,3-dihydroindol-2-one], for which, on EGFR, the IC50 is greater than 100 µM.
Consider `CCOC(=O)c1c(C)[nH]c(/C=C2\C(=O)Nc3ccc(Br)cc32)c1CCC(=O)O` [Compound 114, 5-(5-Bromo-2-oxo-1,2-dihydroindol-3-ylidenemethyl)-4-(2-carboxyethyl)-2-methyl-1H-pyrrole-3-carboxylic acid ethyl ester], for which, on EGFR, the IC50 is greater than 100 µM.
Take `COc1cccc(-c2ccc3c(c2)NC(=O)/C3=C\c2[nH]c3c(c2CCC(=O)O)CCCC3)c1` [Example 204, 3-{2-[6-(3-Methoxyphenyl)-2-oxo-1,2-dihydro-indol-3-ylidenemethyl]-4,5,6,7-tetrahydro-1H-indol-3-yl}-propionic acid]: the figures for the IC50 at src protein kinase and at EGFR were 4.44 µM and 7.09 µM, respectively.
Regarding `O=C1Nc2ccccc2/C1=C/c1[nH]c2c(c1CCC(=O)N1CCOCC1)CCCC2` [Example 200, 3-[3-(3-Morpholin-4-yl-3-oxopropyl)-4,5,6,7-tetrahydro-1H-indol-2-ylmethylene]-1,3-dihydroindol-2-one], the figures for the IC50 (in assay [1]; against pyk2; on EGFR) were 8.6 µM, 5.62 µM and greater than 100 µM, respectively.
Regarding `O=C(O)CCc1c(/C=C2\C(=O)Nc3ccccc32)[nH]c2c1CCCC2` [Example 190, 3-[2-(2-Oxo-1,2-dihydro-indol-3-ylidenemethyl)-4,5,6,7-tetrahydro-1H-indol-3-yl]-propionic acid], the IC50 at src protein kinase was 0.11 µM; in assay [1] it was 2.9 µM; against pyk2, less than 0.78 µM.
Turning to `Cc1[nH]c2ccccc2c1/C=C1\C(=O)Nc2ccc(N)cc21` [Example 187, 5-Amino-3-(2-methyl-1H-indol-3-ylmethylene)-1,3-dihydroindol-2-one], the IC50 at pyk2 is 75.8 µM; on EGFR, greater than 100 µM.

By IC50 is commonly meant the concentration that gives 50% inhibition.
